Laboratory results reported in patent US5438052A, “Cephalosporin derivatives” (Hoffmann-La Roche Inc., priority 1991, dated 1995).
Converted amounts (≈) assume the structure as drawn. Counter-ions that a name gives are not always drawn.

Columns and labels:
E. cloacae 908R = assay: Minimum inhibitory concentration in vitro, agar dilution method; format: cell-based; settings: Enterobacter cloacae; E. cloacae 908R, agar dilution; read-out: MIC
Excerpt: (§1) 1. Minimum Inhibitory Concentration in vitro
(§2) The activities ascertained, minimum inhibitory concentration (MIC) in μg/ml, are compiled in Table 1 hereinafter: […]

E. coli 25922 [1] = assay: as above; format: cell-based; settings: Escherichia coli; E. coli 25922, agar dilution; read-out: MIC
Excerpt: as §1, §2

S. pyogenes 15 = assay: as above; format: cell-based; settings: Streptococcus pyogenes; S. pyogenes 15, agar dilution; read-out: MIC
Excerpt: as §1, §2

P. vulgaris 1028 = assay: as above; format: cell-based; settings: Proteus vulgaris; P. vulgaris 1028, agar dilution; read-out: MIC
Excerpt: as §1, §2

P. mirabilis 2117 = assay: as above; format: cell-based; settings: Proteus mirabilis; P. mirabilis 2117, agar dilution; read-out: MIC
Excerpt: as §1, §2

S. marcescens 69438 = assay: as above; format: cell-based; settings: Serratia marcescens; S. marcescens 69438, agar dilution; read-out: MIC
Excerpt: as §1, §2

S. aureus 6538 = assay: as above; format: cell-based; settings: Staphylococcus aureus; S. aureus 6538, agar dilution; read-out: MIC
Excerpt: as §1, §2

E. cloacae P99 = assay: as above; format: cell-based; settings: Enterobacter cloacae
Excerpt: as §1, §2

P. aeruginosa 799/WT = assay: as above; format: cell-based; settings: Pseudomonas aeruginosa; P. aeruginosa 799/WT, agar dilution; read-out: MIC
Excerpt: as §1, §2

E. cloacae 908SSi = assay: as above; format: cell-based; settings: Enterobacter cloacae; E. cloacae 908SSi, agar dilution; read-out: MIC
Excerpt: as §1, §2

K. pneumoniae 418 = assay: as above; format: cell-based; settings: Klebsiella pneumoniae; K. pneumoniae 418, agar dilution; read-out: MIC
Excerpt: as §1, §2

E. aerogenes CF153 = assay: as above; format: cell-based; settings: Klebsiella aerogenes; E. aerogenes CF153, agar dilution; read-out: MIC
Excerpt: as §1, §2

P. aeruginosa BA = assay: as above; format: cell-based; settings: Pseudomonas aeruginosa; P. aeruginosa BA, agar dilution; read-out: MIC
Excerpt: as §1, §2

K. oxytoca 1082 = assay: as above; format: cell-based; settings: Klebsiella oxytoca; K. oxytoca 1082, agar dilution; read-out: MIC
Excerpt: as §1, §2

P. aeruginosa 27853 = assay: as above; format: cell-based; settings: Pseudomonas aeruginosa; P. aeruginosa 27853, agar dilution; read-out: MIC
Excerpt: as §1, §2

C. freundii 902 = assay: as above; format: cell-based; settings: Citrobacter freundii; C. freundii 902, agar dilution; read-out: MIC
Excerpt: as §1, §2

P. aeruginosa 799/61 = assay: as above; format: cell-based; settings: Pseudomonas aeruginosa; P. aeruginosa 799/61, agar dilution; read-out: MIC
Excerpt: as §1, §2

P. aeruginosa MK1184 = assay: as above; format: cell-based; settings: Pseudomonas aeruginosa; P. aeruginosa MK1184, agar dilution; read-out: MIC
Excerpt: as §1, §2

E. coli 25922 [2] = assay: Experimental systemic septicaemia in the mouse; format: in vivo; settings: Escherichia coli, sc, 96 h; E. coli 25922, albino mice, s.c. 1 and 3 hours after infection, survival after 4 days; read-out: ED50
Method: (§3) 2. Experimental systemic septicaemia in the mouse
(§4) An experimental systemic septicaemia was produced in albino mice weighing 16-20 g by intraperitoneally injecting into the experimental animals a sample of a dilute culture of the test organism which had been grown overnight. The sample administered is calculated such that the dosage administered is about 5-100 times greater than the dosage which is required to kill 50% of untreated experimental animals within 48 hours. The bacteria were injected as a suspension in the culture broth. Groups of 5 experimental animals each were used not only for the control, but also for the treatment for each dosage tested. The products in accordance with the invention were administered subcutaneously as a suspension in Tween 80 (2%), whereby the concentrations were chosen such that each experimental animal received 500 μl per administration. The respective concentrations were administered twice, namely 1 and 3 hours after the infection (in the case of P. aeruginosa three times, namely 1, 3 and 5 hours after the infection). The ED50 is that dosage which protects 50% of the experimental animals and was calculated by means of the Probit method on the basis of the survial rate after 4 days following the infection. The ED50 values in mg/kg s.c. (subcutaneous) for representatives of the class of substance in accordance with the invention are given in Table 2 hereinafter.

[3] = test system: Pseudomonas aeruginosa BA; assay: Experimental systemic septicaemia in the mouse; format: in vivo; settings: sc, 96 h, P. aeruginosa BA, albino mice, s.c. 1, 3 and 5 hours after infection, survival after 4 days, read-out: ED50
Method: as §3, §4

SMILES	MIC (E. cloacae 908R)	MIC (E. coli 25922 [1])	MIC (S. pyogenes 15)	MIC (P. vulgaris 1028)	MIC (P. mirabilis 2117)	MIC (S. marcescens 69438)	MIC (S. aureus 6538)	MIC (E. cloacae P99)	MIC (P. aeruginosa 799/WT)	MIC (E. cloacae 908SSi)	MIC (K. pneumoniae 418)	MIC (E. aerogenes CF153)	MIC (P. aeruginosa BA)	MIC (K. oxytoca 1082)	MIC (P. aeruginosa 27853)	MIC (C. freundii 902)	MIC (P. aeruginosa 799/61)	MIC (P. aeruginosa MK1184)	ED50 (E. coli 25922 [2])	ED50 [3]
Cc1cc(SCC2=C(C(=O)O)N3C(=O)[C@@H](NC(=O)/C(=N\OCc4nc(=O)c(O)c[nH]4)c4csc(N)n4)[C@H]3SC2)n2nc(CNS(=O)(=O)c3ccc(O)c(O)c3)nc2n1 [Example 2, (6R,7R)-7-[(Z)-2-(2-amino-4-thiazolyl)-2-[[(1,4-dihydro-5-hydroxy-4-oxo-2-pyrimidinyl)methoxy]imino]acetamido]-3-[[[2-[(3,4-dihydroxybenzenesulphonamido)methyl]-5-methyl-s-triazolo[1,5-a]pyrimidinyl-7-yl]thio]methyl]-8-oxo-5-thia-1-azabicyclo[4.2.0]oct-2-ene-2-carboxylic acid sodium salt (1:1)]	1 µg/mL	< 0.1 µg/mL	2 µg/mL	0.5 µg/mL	0.25 µg/mL	< 0.25 µg/mL	32 µg/mL	16 µg/mL	0.12 µg/mL	4 µg/mL	< 0.25 µg/mL	0.5 µg/mL	< 0.1 µg/mL	4 µg/mL	< 0.1 µg/mL	< 0.1 µg/mL	< 0.1 µg/mL	0.25 µg/mL	0.3 mg/kg	–
Cc1cc(SCC2=C(C(=O)O)N3C(=O)[C@@H](NC(=O)/C(=N\OCc4ccc(O)c(O)c4F)c4csc(N)n4)[C@H]3SC2)n2nc(COC(=O)c3ccc(O)c(O)c3)nc2n1 [Example 9]	0.12 µg/mL (≈ 0.141 µM)	< 0.1 µg/mL	1 µg/mL (≈ 1.17 µM)	< 0.1 µg/mL	< 0.1 µg/mL	< 0.1 µg/mL	8 µg/mL (≈ 9.37 µM)	8 µg/mL (≈ 9.37 µM)	–	4 µg/mL (≈ 4.68 µM)	< 0.1 µg/mL	< 0.1 µg/mL	< 0.1 µg/mL	< 0.1 µg/mL	< 0.1 µg/mL	< 0.1 µg/mL	< 0.1 µg/mL	< 0.1 µg/mL	< 0.05 mg/kg	0.24 mg/kg
CC(C)(O/N=C(\C(=O)N[C@@H]1C(=O)N2C(C(=O)O)=C(CSc3nc(-c4ccccc4)ncc3-c3ccc(O)c(O)c3)CS[C@H]12)c1csc(N)n1)C(=O)NO [Example 17, (6R,7R)-7-[(Z)-2-(2-amino-4-thiazolyl)-2-[[1-(hydroxycarbamoyl)-1-methylethoxy]imino]acetamido]-3-[[[5-(3,4-dihydroxyphenyl)-2-phenyl-4-pyrimidinyl]thio]methyl]-8-oxo-5-thia-1-azabicyclo[4.2.0]oct-2-ene-2-carboxylic acid]	1 µg/mL (≈ 1.28 µM)	< 0.1 µg/mL	0.12 µg/mL (≈ 0.154 µM)	0.25 µg/mL (≈ 0.321 µM)	0.5 µg/mL (≈ 0.642 µM)	0.5 µg/mL (≈ 0.642 µM)	> 32 µg/mL	16 µg/mL (≈ 20.5 µM)	2 µg/mL (≈ 2.57 µM)	8 µg/mL (≈ 10.3 µM)	0.25 µg/mL (≈ 0.321 µM)	0.25 µg/mL (≈ 0.321 µM)	2 µg/mL (≈ 2.57 µM)	2 µg/mL (≈ 2.57 µM)	1 µg/mL (≈ 1.28 µM)	0.5 µg/mL (≈ 0.642 µM)	< 0.1 µg/mL	8 µg/mL (≈ 10.3 µM)	–	–
Nc1nc(/C(=N/OCc2cc(Cl)c(O)c(O)c2Cl)C(=O)N[C@@H]2C(=O)N3C(C(=O)O)=C(CSc4nc(-c5ccccc5)ncc4-c4ccc(O)c(O)c4)CS[C@H]23)cs1 [Example 18, (6R,7R)-7-[(Z)-2-(2-amino-4-thiazolyl)-2-[[(2,5-dichloro-3,4-dihydroxybenzyl)oxy]imino]acetamido]-3-[[[5-(3,4-dihydroxyphenyl)-2-phenyl-4-pyrimidinyl]thio]methyl]-8-oxo-5-thia-1-azabicyclo[4.2.0]oct-2-ene-2-carboxylic acid]	2 µg/mL (≈ 2.3 µM)	0.12 µg/mL (≈ 0.138 µM)	1 µg/mL (≈ 1.15 µM)	0.12 µg/mL (≈ 0.138 µM)	< 0.1 µg/mL	1 µg/mL (≈ 1.15 µM)	> 32 µg/mL	16 µg/mL (≈ 18.4 µM)	0.12 µg/mL (≈ 0.138 µM)	8 µg/mL (≈ 9.21 µM)	0.12 µg/mL (≈ 0.138 µM)	0.12 µg/mL (≈ 0.138 µM)	1 µg/mL (≈ 1.15 µM)	0.25 µg/mL (≈ 0.288 µM)	2 µg/mL (≈ 2.3 µM)	0.12 µg/mL (≈ 0.138 µM)	< 0.1 µg/mL	2 µg/mL (≈ 2.3 µM)	–	–
CC(C)(O/N=C(\C(=O)N[C@@H]1C(=O)N2C(C(=O)O)=C(CSc3ncncc3-c3ccc(O)c(O)c3)CS[C@H]12)c1csc(N)n1)C(=O)NO [Example 19a, (6R,7R)-7-[(Z)-2-(2-amino-4-thiazolyl)-2-[[1-(hydroxycarbamoyl)-1-methylethoxy]imino]acetamido]-3-[[[5-(3,4-dihydroxyphenyl)-4-pyrimidinyl]thio]methyl]-8-oxo-5-thia-1-azabicyclo[4.2.0]oct-2-ene-2-carboxylic acid]	16 µg/mL (≈ 22.8 µM)	< 0.1 µg/mL	0.5 µg/mL (≈ 0.711 µM)	0.12 µg/mL (≈ 0.171 µM)	0.25 µg/mL (≈ 0.356 µM)	0.12 µg/mL (≈ 0.171 µM)	16 µg/mL (≈ 22.8 µM)	16 µg/mL (≈ 22.8 µM)	0.25 µg/mL (≈ 0.356 µM)	2 µg/mL (≈ 2.85 µM)	< 0.1 µg/mL	0.12 µg/mL (≈ 0.171 µM)	1 µg/mL (≈ 1.42 µM)	1 µg/mL (≈ 1.42 µM)	2 µg/mL (≈ 2.85 µM)	0.25 µg/mL (≈ 0.356 µM)	< 0.1 µg/mL	16 µg/mL (≈ 22.8 µM)	–	–
CC(C)(O/N=C(\C(=O)N[C@@H]1C(=O)N2C(C(=O)O)=C(CSc3nc(-c4ccccc4)ncc3-c3ccc(O)c(O)c3)CS[C@H]12)c1csc(N)n1)C(=O)NNC(=O)c1ccc(O)c(O)c1 [Example 46, (6R,7R)-7-[(Z)-2-(2-amino-4-thiazolyl)-2-[[1-[3-(3,4-dihydroxybenzoyl)carbazoyl]-1-methylethoxy]imino]acetamido]-3-[[[5-(3,4-dihydroxyphenyl)-2-phenyl-4-pyrimidinyl]thio]methyl]-8-oxo-5-thia-1-azabicyclo[4.2.0]oct-2-ene-2-carboxylic acid]	1 µg/mL (≈ 1.09 µM)	0.12 µg/mL (≈ 0.131 µM)	4 µg/mL (≈ 4.38 µM)	0.5 µg/mL (≈ 0.547 µM)	0.25 µg/mL (≈ 0.274 µM)	4 µg/mL (≈ 4.38 µM)	> 32 µg/mL	16 µg/mL (≈ 17.5 µM)	0.25 µg/mL (≈ 0.274 µM)	16 µg/mL (≈ 17.5 µM)	0.25 µg/mL (≈ 0.274 µM)	0.25 µg/mL (≈ 0.274 µM)	0.5 µg/mL (≈ 0.547 µM)	2 µg/mL (≈ 2.19 µM)	0.25 µg/mL (≈ 0.274 µM)	0.5 µg/mL (≈ 0.547 µM)	< 0.1 µg/mL	2 µg/mL (≈ 2.19 µM)	< 0.5 mg/kg	–
